Results published in the NIST ThermoML archive (doi:10.1016/j.tca.2014.10.001).

Assay: mn = molality of the nth substance listed, in mol/kg
Conditions: 100 kPa, Liquid; for electrical conductivity: Alternating current cell with electrodes; for speed of sound: Frequency=3 MHz, Sing-around technique in a fixed-path interferometer; for mass density: Vibrating tube method

CCCCn1cc[n+](C)c1C.F[B-](F)(F)F [1-butyl-2,3-dimethylimidazolium tetrafluoroborate] + O
Conditions | electrical conductivity [S/m] | mass density [kg/m3] | speed of sound [m/s]
298.15 K, m1 = 0.0308 | – | 998.165 | 1500.7
298.15 K, m1 = 0.04107 | – | 998.537 | 1502.3
298.15 K, m1 = 0.05137 | – | 998.909 | 1504
298.15 K, m1 = 0.06162 | – | 999.277 | 1505.7
298.15 K, m1 = 0.08198 | – | 1000 | 1509
298.15 K, m1 = 0.1024 | – | 1000.72 | 1511.6
298.15 K, m1 = 0.1072 | 0.787 | – | –
298.15 K, m1 = 0.1123 | 0.816 | – | –
298.15 K, m1 = 0.1179 | 0.847 | – | –
298.15 K, m1 = 0.1231 | – | 1001.43 | 1512.3
298.15 K, m1 = 0.1242 | 0.881 | – | –
298.15 K, m1 = 0.1311 | 0.92 | – | –
298.15 K, m1 = 0.1388 | 0.962 | – | –
298.15 K, m1 = 0.1436 | – | 1002.11 | 1513
298.15 K, m1 = 0.1474 | 1.01 | – | –
298.15 K, m1 = 0.1573 | 1.06 | – | –
298.15 K, m1 = 0.164 | – | 1002.79 | 1513.5
298.15 K, m1 = 0.1685 | 1.12 | – | –
298.15 K, m1 = 0.1815 | 1.19 | – | –
298.15 K, m1 = 0.1846 | – | 1003.47 | 1514
298.15 K, m1 = 0.1966 | 1.27 | – | –
298.15 K, m1 = 0.205 | – | 1004.13 | 1514.6
298.15 K, m1 = 0.2145 | 1.35 | – | –
308.15 K, m1 = 0.0308 | – | 995.089 | 1523
308.15 K, m1 = 0.0309 | 0.278 | – | –
308.15 K, m1 = 0.032 | 0.287 | – | –
308.15 K, m1 = 0.0333 | 0.299 | – | –
308.15 K, m1 = 0.0347 | 0.305 | – | –
308.15 K, m1 = 0.0362 | 0.32 | – | –
308.15 K, m1 = 0.0379 | 0.331 | – | –
308.15 K, m1 = 0.0397 | 0.344 | – | –
308.15 K, m1 = 0.04107 | – | 995.443 | 1524.2
308.15 K, m1 = 0.0417 | 0.359 | – | –
308.15 K, m1 = 0.0439 | 0.378 | – | –
308.15 K, m1 = 0.0463 | 0.396 | – | –
308.15 K, m1 = 0.049 | 0.415 | – | –
308.15 K, m1 = 0.05137 | – | 995.796 | 1525.5
308.15 K, m1 = 0.0521 | 0.437 | – | –
308.15 K, m1 = 0.0556 | 0.462 | – | –
308.15 K, m1 = 0.0596 | 0.493 | – | –
308.15 K, m1 = 0.06162 | – | 996.146 | 1526.8
308.15 K, m1 = 0.0642 | 0.531 | – | –
308.15 K, m1 = 0.0695 | 0.568 | – | –
308.15 K, m1 = 0.0719 | 0.585 | – | –
308.15 K, m1 = 0.0745 | 0.603 | – | –
308.15 K, m1 = 0.0772 | 0.624 | – | –
308.15 K, m1 = 0.0802 | 0.649 | – | –
308.15 K, m1 = 0.08198 | – | 996.836 | 1529
308.15 K, m1 = 0.0834 | 0.673 | – | –
308.15 K, m1 = 0.0869 | 0.698 | – | –
308.15 K, m1 = 0.0906 | 0.727 | – | –
308.15 K, m1 = 0.0947 | 0.756 | – | –
308.15 K, m1 = 0.0992 | 0.788 | – | –
308.15 K, m1 = 0.1024 | – | 997.517 | 1531.1
308.15 K, m1 = 0.1042 | 0.819 | – | –
308.15 K, m1 = 0.1097 | 0.851 | – | –
308.15 K, m1 = 0.1158 | 0.883 | – | –
308.15 K, m1 = 0.1225 | 0.919 | – | –
308.15 K, m1 = 0.1231 | – | 998.186 | 1531.7
308.15 K, m1 = 0.1302 | 0.965 | – | –
308.15 K, m1 = 0.1388 | 1.01 | – | –
308.15 K, m1 = 0.1436 | – | 998.836 | 1532.1
308.15 K, m1 = 0.1487 | 1.07 | – | –
308.15 K, m1 = 0.1602 | 1.13 | – | –
308.15 K, m1 = 0.164 | – | 999.479 | 1532.5
308.15 K, m1 = 0.1735 | 1.2 | – | –
308.15 K, m1 = 0.1846 | – | 1000.13 | 1533
308.15 K, m1 = 0.1892 | 1.29 | – | –
308.15 K, m1 = 0.205 | – | 1000.75 | 1533.6
308.15 K, m1 = 0.208 | 1.4 | – | –
